Measurements as given in patent US20240226072A1 (Stichting Het Nederlands Kanker Instituut, priority 2022, published 2024).

Key:
[1] = input of human simulation, cited from earlier work
in vivo [2] = conditions: male, mouse, po, 25 mg/kg, Tmax
Protocol: (§1) The Jevtana (10 mg/mL) solution contains 0.26 mg/mL polysorbate 80 and 15% (w/v) ethanol, and is adjusted to pH 2-6 with citric acid. […] The stock solution was further diluted 5-fold with water to reach a 2.5 mg/mL dosing solution for oral administration. The vehicle solution only consists of polysorbate 80, ethanol and water (1:1:8, v/v/v). […] All dosing solutions were prepared freshly on the day of the experiment.
(§2) At the termination time point of 24 hours, mice were anesthetized using an isoflurane evaporator with 3% isoflurane with 0.8 L/min air and 0.3 L/min oxygen. A final blood sample was taken using cardiac puncture, using Eppendorf tubes previously prepared with heparin as an anticoagulant. Subsequently, the anesthetized mice were sacrificed by cervical dislocation and the tissues of interest were collected. Brain, liver, spleen, kidney, small intestine, and testis were collected. The small intestinal content (SIC) was separately collected by removing this from the small intestinal tissue, which was subsequently rinsed with saline to remove possibly fecal residue. The blood samples were centrifuged at 9,000×g for 6 minutes at 4° C., and the plasma fraction was isolated and stored at −30° C. until analysis. Brain, liver, spleen, kidney, small intestinal tissue, SIC, and testis were homogenized in a FastPrep-24™ 5G homogenizer (M. P. Biomedicals, Santa Ana, CA, USA) for 1 min with 1, 3, 1, 2, 3, 2, and 1 mL of 2% (w/v) BSA in Milli-Q water, respectively. Until analysis of the samples, they were all stored at −30° C.
(§3) Pharmacokinetic parameters were estimated by non-compartmental analysis using the software package of PK solutions 2.0.2 (SUMMIT, Research Service). The area under the curve (AUC) of the plasma-concentration time curve for all the compounds was calculated using the linear trapezoidal rule without extrapolating to infinity. The peak plasma concentration (Cmax) and the time to reach peak plasma concentration (Tmax) were obtained directly from the individual raw data. For the statistical analysis and the graphs GraphPad Prism 9 (GraphPad Software Inc., La Jolla, CA, USA) was used. The statistics for the comparison of multiple groups were calculated with the one-way analysis of variance (ANOVA), whereas Sidak's post hoc correction was performed. Log-transformation before statistical analysis was applied, when variances within the groups were not homogeneously distributed. Differences were considered statistically significant when P<0.05. All data are presented as geometric mean±SD.
The last parameter is in many cases the most useful, as it takes the overall exposure into account.

[3] = Plasma pharmacokinetics and tissue distribution 2 h after oral cabazitaxel 10 mg/kg with vehicle or 25 mg/kg ritonavir in wild-type, Oatp1a/1b−/−, Oatp1a/1b/2b1−/−, OATP1B1- and OATP1B3-transgenic mice; type: in vivo; conditions: ritonavir 25 mg/kg oral, cabazitaxel 10 mg/kg oral; for CLiver / Cbrain / Pbrain, brain accumulation per h / SIC (% of dose), small intestinal content: 2 h; for AUC(0-t) / Cmax / Tmax: male, FVB, mouse, plasma, po, 25 mg/kg; for AUC(0-t): AUC0-[…]
Protocol: All animals were fasted 2 to 3 hours prior to the start of the experiment to minimize variation in absorption after oral administration. […] Subsequently, cardiac puncture was performed with a heparinized needle and syringe collecting a final blood sample. […] All samples were stored at −30° C. until analysis.
Differences were considered statistically significant when P<0.05. All data are presented as geometric mean±SD.

in vivo [4] = conditions: male, mouse, po; for AUC(0-t): AUC0-24 h
Protocol: as §1, §2, §3

CC(C)c1nc(CN(C)C(=O)N[C@H](C(=O)N[C@@H](Cc2ccccc2)C[C@H](O)[C@H](Cc2ccccc2)NC(=O)OCc2cncs2)C(C)C)cs1 [ritonavir]
IIV CL [1]: 46.7 CV%
CL ([1]; source (18)): 7.72 L/h
IIV CV ([1]; source (18)): 12.8 CV%
IIV F ([1]; source (18)): 52.2 CV%
IIV Vc ([1]; source (18)): 93.5 CV%
IOV CV ([1]; source (18)): 22.2 CV%
IOV MAT ([1]; source (18)): 32.1 CV%
MAT ([1]; source (18)): 8.45 h
Q ([1]; source (18)): 3.99 L/h
V ([1]; source (18)): 23 L
Vp ([1]; source (18)): 17.9 L
Tmax (in vivo [2]; Cyp3a−/− (FVB background)): 2.33 ± 0.82 h
Tmax (in vivo [2]; wild-type FVB): 2 h
CLiver ([3]; OATP1B1-transgenic mice): 42478 ± 7201 pmol/g
Cbrain ([3]; OATP1B1-transgenic mice): 277 ± 96.0 pmol/g
Pbrain, brain accumulation per h ([3]; OATP1B1-transgenic mice): 0.012 ± 0.002 h⁻¹
SIC (% of dose), small intestinal content ([3]; OATP1B1-transgenic mice): 5.81 ± 3.14 % of dose
CLiver ([3]; OATP1B3-transgenic mice): 45512 ± 4650 pmol/g
Cbrain ([3]; OATP1B3-transgenic mice): 249 ± 47.9 pmol/g
Pbrain, brain accumulation per h ([3]; OATP1B3-transgenic mice): 0.013 ± 0.005 h⁻¹
SIC (% of dose), small intestinal content ([3]; OATP1B3-transgenic mice): 4.44 ± 2.65 % of dose
CLiver ([3]; Oatp1a/1b/2b1−/− mice): 38153 ± 8561 pmol/g
Cbrain ([3]; Oatp1a/1b/2b1−/− mice): 236 ± 82.5 pmol/g
Pbrain, brain accumulation per h ([3]; Oatp1a/1b/2b1−/− mice): 0.014 ± 0.003 h⁻¹
SIC (% of dose), small intestinal content ([3]; Oatp1a/1b/2b1−/− mice): 6.03 ± 3.23 % of dose
CLiver ([3]; Oatp1a/1b−/− mice): 43800 ± 5797 pmol/g
Cbrain ([3]; Oatp1a/1b−/− mice): 306 ± 45.5 pmol/g
Pbrain, brain accumulation per h ([3]; Oatp1a/1b−/− mice): 0.014 ± 0.003 h⁻¹
SIC (% of dose), small intestinal content ([3]; Oatp1a/1b−/− mice): 3.84 ± 2.08 % of dose
AUC(0-t) ([3]; OATP1B1-transgenic mice): 14.3 ± 2.02 µM·h
AUC(0-t) ([3]; OATP1B3-transgenic mice): 14.8 ± 1.22 µM·h
AUC(0-t) ([3]; Oatp1a/1b/2b1−/− mice): 13.1 ± 2.14 µM·h
AUC(0-t) ([3]; Oatp1a/1b−/− mice): 16.9 ± 3.95 µM·h
AUC(0-t) ([3]; wild-type mice): 5.96 ± 1.15 µM·h
Cmax ([3]; OATP1B1-transgenic mice): 8.35 ± 1.3 µM
Tmax ([3]; OATP1B1-transgenic mice): 1.17 h
Cmax ([3]; OATP1B3-transgenic mice): 8.67 ± 1.15 µM
Tmax ([3]; OATP1B3-transgenic mice): 1.33 h
Cmax ([3]; Oatp1a/1b/2b1−/− mice): 7.74 ± 1.12 µM
Tmax ([3]; Oatp1a/1b/2b1−/− mice): 1 h
Cmax ([3]; Oatp1a/1b−/− mice): 11.2 ± 5.21 µM
Tmax ([3]; Oatp1a/1b−/− mice): 1.21 h
Cmax ([3]; wild-type mice): 3.62 ± 0.765 µM
Tmax ([3]; wild-type mice): 0.667 h
CLiver ([3]; wild-type mice): 44998 ± 6028 pmol/g
Pbrain, brain accumulation per h ([3]; wild-type mice): 0.010 ± 0.002 h⁻¹
SIC (% of dose), small intestinal content ([3]; wild-type mice): 3.90 ± 2.22 % of dose
AUC(0-t) (in vivo [4]; Cyp3aXAV (human CYP3A in Cyp3a−/−, FVB background), 1 mg/kg): 0.000447 ± 0.000766 µM·h
AUC(0-t) (in vivo [4]; FVB (wild-type), 1 mg/kg): 0.00591 ± 0.0018 µM·h
Cmax (in vivo [4]; FVB, Cyp3aXAV, 1 mg/kg): 0.000532 ± 0.00108 µM
Tmax (in vivo [4]; FVB, Cyp3aXAV, 1 mg/kg): 1.38 ± 3.25 h
AUC(0-t) (in vivo [4]; FVB, Cyp3aXAV, 10 mg/kg): 0.075 ± 0.0188 µM·h
Cmax (in vivo [4]; FVB, Cyp3aXAV, 10 mg/kg): 0.0829 ± 0.0159 µM
Tmax (in vivo [4]; FVB, Cyp3aXAV, 10 mg/kg): 0.25 h
Cmax (in vivo [4]; FVB, wild-type, 1 mg/kg): 0.00576 ± 0.00138 µM
Tmax (in vivo [4]; FVB, wild-type, 1 mg/kg): 0.33 ± 0.13 h
AUC(0-t) (in vivo [4]; FVB, wild-type, 10 mg/kg): 1.44 ± 0.529 µM·h
Cmax (in vivo [4]; FVB, wild-type, 10 mg/kg): 0.749 ± 0.322 µM
Tmax (in vivo [4]; FVB, wild-type, 10 mg/kg): 0.92 ± 0.2 h
